{
  "source": "patent US20030087942A1",
  "about": "“Method for the treatment and prevention of cachexia” (Washington University, priority 2001, published 2003)",
  "key": {"LPS-induced weight loss": {"experiment": "LPS-induced weight loss", "type": "in vivo, mice (C3H/HeN)", "method": "(§1) Animal housing. […] For pharmacological inhibitor studies, male C3H/HeN mice (Harlan Sprague Dawley, Inc., Indianapolis, Ind.) 10-12 wks of age were evaluated according to the method of Gross et al., Am J Physiol 278: R1415-23, 2000. See also Silver et al., J Clin Invest 95: 725-31, 1995. […] Control mice designated “WT” for the COX KO experiments were WT and heterozygous littermates arising from the COX-2 heterozygous matings. All mouse protocols were in accordance with NIH guidelines and approved by the Animal Care and Use Committee of Washington University School of Medicine."}, "[1]": {"settings": "24 h period following LPS", "procedure": "LPS-induced anorexia. C3H/HeN male mice were singly housed and acclimatized for at least 2 days to cages with grid bottoms prior to treatments. Body weight and food intake was measured daily until a stable baseline was obtained. Mice received either vehicle (phosphate buffered saline; PBS) or 100 μg of lipopolysaccharide (Escherichia coli 0111 :B4, Sigma, St. Louis, Mo.) in PBS via shallow midline, mid-abdominal, intraperitoneal injection. […] To determine the effect of COX inhibition, mice were pretreated with either vehicle (phosphate buffered saline plus 1% Tween 80), or vehicle plus agent 30 minutes prior to i.p. injection of LPS or vehicle, and re-dosed at 8 and 24 hrs after LPS. Cyclooxygenase inhibitors were administered via gavage using olive-tipped needles."}, "IL-6": {"system": "IL-6", "experiment": "Plasma IL-6 after LPS (ELISA)", "type": "in vivo, mice (C3H/HeN)", "source_text": "(§2) Serum corticosterone, leptin, and IL-6 measurements."}, "leptin": {"system": "leptin", "experiment": "Plasma leptin after LPS (ELISA)", "type": "in vivo, mice (C3H/HeN)", "settings": "after LPS (3 h and 16 h)", "source_text": "as §2"}, "CRH mRNA": {"system": "CRH mRNA", "experiment": "Hypothalamic in situ mRNA hybridization, CRH", "type": "in vivo, mice (C3H/HeN)", "settings": "Compound 1/LPS group; 16 h after LPS with food withdrawal", "method": "Hypothalamic in situ mRNA hybridization. […] After 24 h immersion in 4% paraformaldehyde, hypothalami were cryoprotected in 10% sucrose in DEPC D-PBS. Samples were embedded in OCT (Sakura Finetek USA, Inc., Torrance, Calif.), cut into 10 micron sections on a cryostat, and thaw mounted onto Superfrost plus slides (Fisher Scientific, Pittsburgh, Pa.). In situ hybridization utilized α-^33P-UTP-labelled 320 base anti-sense riboprobe from the mouse CRH gene or a 511 base anti-sense riboprobe from the rat neuropeptide Y (NPY) cDNA (generously provided by Dr. Steven Sabol, NHLBI, NIH) by methods described (e.g., Muglia et al., J Neurosci 19: 2051-8, 1999). For CRH and NPY mRNA detection, the regions of the hypothalamic paraventicular and arcuate nuclei were determined by Nissl staining and light microscopy. Six sections spanning each nucleus were hybridized to CRH (paraventricular nucleus) or NPY (arcuate nucleus) probes, and the two sections of peak intensity imaged for densitometric analysis. Hybridizing probes were quantitated by exposure of slides to Hyperfilm-βMax (Amersham Life Science, Inc., Arlington Heights, Ill.) with densitometric analysis employing NIH Image Software."}, "[2]": {"settings": "mouse, in vivo, 10 mg/kg", "method": "as §1"}},
  "data": [
    {"smiles": "NS(=O)(=O)c1ccc(-n2nc(C(F)(F)F)cc2-c2ccc(Cl)cc2)cc1", "note": "[Compound 1]", "values": [
      {"measurement": "difference in weight loss between LPS-treated Compound 1 and Compound 2 groups", "setting": "LPS-induced weight loss; 2 and 3 days after LPS treatment", "result": "remained significant"},
      {"measurement": "hypophagic response after LPS", "setting": "[1]", "result": "attenuated, but did not completely block the hypophagic response"},
      {"measurement": "magnitude of early induction of plasma IL-6 vs. LPS alone", "setting": "IL-6; 3 h after LPS", "result": "no change"},
      {"measurement": "sustained increases in plasma IL-6 vs. LPS alone", "setting": "IL-6; 16 hours after LPS", "result": "no change"},
      {"measurement": "magnitude of induction of leptin, vehicle/LPS vs. Compound 1/LPS", "setting": "leptin", "result": "did not differ"},
      {"measurement": "elevation of CRH mRNA in the paraventricular nucleus of the hypothalamus", "setting": "CRH mRNA", "result": "approximately 3 fold"}
    ]},
    {"smiles": "COc1ccc(-n2nc(C(F)(F)F)cc2-c2ccc(Cl)cc2)cc1", "note": "[Compound 2]", "values": [
      {"measurement": "body weight in comparison to the vehicle/LPS group", "setting": "LPS-induced weight loss; 3 days after treatment, 300 μg/dose (10 mg/kg) gavage plus LPS", "result": "sustained weight reduction"}
    ]},
    {"smiles": "COc1ccc2c(c1)c(CC(=O)O)c(C)n2C(=O)c1ccc(Cl)cc1", "note": "[indomethacin]", "values": [
      {"measurement": "weight loss associated with LPS administration, vs. vehicle/LPS", "setting": "LPS-induced weight loss; 100 μg LPS i.p., gavage 30 min before, 8 and 24 h after LPS, indomethacin 150 μg/dose, Compound 1 300 μg/dose", "result": "tended to reduce the weight loss"},
      {"measurement": "change in body weight relative to vehicle-treated control mice", "setting": "[2]", "result": "no change in body weight"}
    ]}
  ]
}
